Measurements taken from the supplement of paper PMC7017272.
± gives the standard deviation of the averaged measurements. Each block holds one compound with its values, some of them ahead of it.

How the values were obtained:
[1] = test system: UT-SCC-24A; assay: maximal % inhibition of viability relative to DMSO; higher = stronger effect; conditions: treatment time: 3 days
Method: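 HNSCC cell lines (500 cells/well, 384-well) were cultured on plastic, on top of (2D) or embedded (3D) in Matrigel or human leiomyoma matrix Myogel (500 ug/mL; Myogel 3D mixed with rat collagen I). Cells were treated for 3 days with 5 ten-fold concentrations of each drug, and viability was read by CellTiter-Glo. Viability was normalised to DMSO (0% inhibition) and 100 uM benzethonium chloride (100% inhibition) controls and fitted with the FIMM DSRT pipeline to give IC50 (nM), maximal % inhibition and the drug sensitivity score (DSS). Suffixes _1/_2/_3 on drug names are replicates.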

[2] = test system: UT-SCC-24B; assay: drug sensitivity score (DSS); higher = more sensitive; extreme values may be limits of the assay; conditions: treatment time: 3 days
How it was run: (§1)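 Using 384-well plates, 500 cells/well of HPV-negative HNSCC cell lines were grown on plastic, on 500 µg/mL Matrigel or Myogel coatings, or embedded in Matrigel or Myogel with rat collagen I. They were treated with compounds at five 10-fold concentrations for 3 days, and luminescence from CellTiter-Glo 2.0 was normalised to vehicle (0.1% DMSO) and cell-killing control wells. IC50, maximal inhibition and drug sensitivity score were derived from percent-inhibition dose–response curves in the FIMM pipeline.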

[3] = test system: UT-SCC-28; assay: as above; conditions: treatment time: 3 days
How it was run: as §1

[4] = test system: UT-SCC-40; assay: as above; conditions: treatment time: 3 days
How it was run: as §1

[5] = test system: UT-SCC-44; assay: as above; conditions: treatment time: 3 days
How it was run: as §1

[6] = test system: UT-SCC-73; assay: as above; conditions: treatment time: 3 days
How it was run: as §1

[7] = test system: UT-SCC-81; assay: as above; conditions: treatment time: 3 days
How it was run: as §1

[8] = test system: UT-SCC-8; assay: as above; conditions: treatment time: 3 days
How it was run: as §1

[9] = test system: UT-SCC-106A; assay: relative IC50 (midpoint of the fitted curve; maximal inhibition may be below 50%); higher = less potent; conditions: treatment time: 3 days
How it was run: as §1

[10] = test system: UT-SCC-24B; assay: as above; conditions: treatment time: 3 days
How it was run: as §1

[11] = test system: UT-SCC-28; assay: as above; conditions: treatment time: 3 days
How it was run: as §1

[12] = test system: UT-SCC-42B; assay: as above; conditions: treatment time: 3 days
How it was run: as §1

[13] = test system: UT-SCC-44; assay: as above; conditions: treatment time: 3 days
How it was run: as §1

[14] = test system: UT-SCC-73; assay: as above; conditions: treatment time: 3 days
How it was run: as §1

[15] = test system: UT-SCC-81; assay: as above; conditions: treatment time: 3 days
How it was run: as §1

[16] = test system: UT-SCC-8; assay: as above; conditions: culture condition: embedded in Myogel + collagen I; treatment time: 3 days
How it was run: as §1

[17] = test system: UT-SCC-14; assay: as above; conditions: culture condition: on top of Matrigel; treatment time: 3 days
How it was run: as §1

[18] = test system: UT-SCC-40; assay: as above; conditions: treatment time: 3 days
How it was run: as §1

[19] = test system: UT-SCC-42A; assay: as above; conditions: treatment time: 3 days
How it was run: as §1

[20] = culture condition: embedded in Matrigel
[21] = culture condition: embedded in Myogel + collagen I
[22] = culture condition: on top of Matrigel
[23] = culture condition: on top of Myogel
[24] = culture condition: plastic 2D (no matrix)

- relative IC50 [9, 20]: 2070 nM
- relative IC50 [9, 23]: > 9890 nM
- relative IC50 [10, 20]: 522 nM
- relative IC50 [10, 22]: 591 nM
- relative IC50 [10, 23]: 2490 nM
- relative IC50 [10, 24]: 227 nM
- relative IC50 [11, 20]: > 9890 nM
- relative IC50 [12, 20]: 2110 nM
- relative IC50 [12, 23]: > 9890 nM
- relative IC50 [12, 24]: > 9890 nM
- relative IC50 [13, 20]: > 9890 nM
- relative IC50 [13, 22]: > 9890 nM
- relative IC50 [14, 24]: > 9890 nM
- relative IC50 [15, 21]: > 9890 nM
- relative IC50 [16]: > 9890 nM
Structure (SMILES): C#Cc1cccc(Nc2ncnc3cc(OCCOC)c(OCCOC)cc23)c1 [Erlotinib]
- maximal % inhibition of viability [1, 20]: 65.2 ± 8%
- maximal % inhibition of viability [1, 21]: 27.5 ± 6.3%
- maximal % inhibition of viability [1, 22]: 50.9 ± 7.2%
- maximal % inhibition of viability [1, 23]: 7.53 ± 1.6%
- maximal % inhibition of viability [1, 24]: 30.6 ± 5%
- drug sensitivity score [2, 20]: 11.3 ± 1 DSS
- drug sensitivity score [2, 21]: 8.03 ± 3 DSS
- drug sensitivity score [2, 22]: 10.4 ± 0.51 DSS
- drug sensitivity score [2, 23]: 3.97 ± 0.21 DSS
- drug sensitivity score [2, 24]: 15.2 ± 1.4 DSS
- drug sensitivity score [3, 20]: 0 DSS
- drug sensitivity score [3, 21]: 1.27 ± 2.2 DSS
- drug sensitivity score [3, 22]: 0 DSS
- drug sensitivity score [3, 24]: 0 DSS
- drug sensitivity score [4, 20]: 0.333 ± 0.31 DSS
- drug sensitivity score [4, 21]: 1.97 ± 3.4 DSS
- drug sensitivity score [4, 22]: 0 DSS
- drug sensitivity score [4, 23]: 0 DSS
- drug sensitivity score [4, 24]: 0.0333 ± 0.058 DSS
- drug sensitivity score [5, 20]: 0 DSS
- drug sensitivity score [5, 21]: 0.133 ± 0.23 DSS
- drug sensitivity score [5, 22]: 0 DSS
- drug sensitivity score [5, 23]: 0.0667 ± 0.12 DSS
- drug sensitivity score [5, 24]: 0.0667 ± 0.12 DSS
- drug sensitivity score [6, 20]: 0.3 ± 0.3 DSS
- drug sensitivity score [6, 21]: 1.17 ± 2 DSS
- drug sensitivity score [6, 22]: 0 DSS
- drug sensitivity score [6, 23]: 0.233 ± 0.4 DSS
- drug sensitivity score [6, 24]: 0 DSS
- drug sensitivity score [7, 20]: 10.4 ± 3.8 DSS
- drug sensitivity score [7, 21]: 0 DSS
- drug sensitivity score [7, 22]: 5.17 ± 2.1 DSS
- drug sensitivity score [7, 23]: 0 DSS
- drug sensitivity score [7, 24]: 0.2 ± 0.27 DSS
- drug sensitivity score [8, 20]: 7.57 ± 0.46 DSS
- drug sensitivity score [8, 21]: 0 DSS
- drug sensitivity score [8, 22]: 5.63 ± 0.65 DSS
- drug sensitivity score [8, 23]: 3.4 ± 2.5 DSS
- drug sensitivity score [8, 24]: 4.2 ± 1.1 DSS

- relative IC50 [9, 20]: 28.4 nM
- relative IC50 [9, 23]: 8.1 nM
- relative IC50 [17]: 6.41 nM
- relative IC50 [10, 23]: 5.03 nM
- relative IC50 [11, 21]: 6.89 nM
- relative IC50 [18, 20]: 4.61 nM
- relative IC50 [18, 24]: 9.09 nM
- relative IC50 [19, 21]: 5.97 nM
- relative IC50 [19, 22]: 15 nM
- relative IC50 [19, 23]: 10.5 nM
- relative IC50 [12, 24]: 20.8 nM
- relative IC50 [13, 21]: 6.3 nM
- relative IC50 [13, 22]: 0.89 nM
- relative IC50 [13, 23]: 1.1 nM
- relative IC50 [14, 22]: 1.92 nM
- relative IC50 [14, 24]: 7.59 nM
- relative IC50 [15, 21]: 2.53 nM
- relative IC50 [15, 22]: 6.53 nM
- relative IC50 [15, 23]: 6.12 nM
- relative IC50 [15, 24]: 2.97 nM
Structure (SMILES): CO[C@H]1C[C@@H]2CC[C@@H](C)[C@@](O)(O2)C(=O)C(=O)N2CCCC[C@H]2C(=O)O[C@H]([C@H](C)C[C@@H]2CC[C@@H](OCCO)[C@H](OC)C2)CC(=O)[C@H](C)/C=C(\C)[C@@H](O)[C@@H](OC)C(=O)[C@H](C)C[C@H](C)/C=C/C=C/C=C/1C [Everolimus]
- maximal % inhibition of viability [1, 20]: 51.3 ± 40%
- maximal % inhibition of viability [1, 21]: 33.2 ± 13%
- maximal % inhibition of viability [1, 22]: 31.5 ± 13%
- maximal % inhibition of viability [1, 23]: 26.8 ± 1.4%
- maximal % inhibition of viability [1, 24]: 28.2 ± 2.9%
- drug sensitivity score [2, 20]: 1.17 ± 1.5 DSS
- drug sensitivity score [2, 21]: 5.5 ± 2.1 DSS
- drug sensitivity score [2, 22]: 1.93 ± 1.7 DSS
- drug sensitivity score [2, 23]: 4.07 ± 1.6 DSS
- drug sensitivity score [2, 24]: 2.43 ± 1.4 DSS
- drug sensitivity score [3, 20]: 3.57 ± 1.1 DSS
- drug sensitivity score [3, 21]: 3.37 ± 1.5 DSS
- drug sensitivity score [3, 22]: 2.63 ± 1.4 DSS
- drug sensitivity score [3, 24]: 4.63 ± 1.6 DSS
- drug sensitivity score [4, 20]: 3.83 ± 6 DSS
- drug sensitivity score [4, 21]: 3.13 ± 3.1 DSS
- drug sensitivity score [4, 22]: 2.1 ± 1.3 DSS
- drug sensitivity score [4, 23]: 1.8 ± 1.9 DSS
- drug sensitivity score [4, 24]: 1.73 ± 1.6 DSS
- drug sensitivity score [5, 20]: 2.47 ± 3.5 DSS
- drug sensitivity score [5, 21]: 5.4 ± 0.36 DSS
- drug sensitivity score [5, 22]: 6.83 ± 1.1 DSS
- drug sensitivity score [5, 23]: 7.67 ± 0.12 DSS
- drug sensitivity score [5, 24]: 5.07 ± 2 DSS
- drug sensitivity score [6, 20]: 2.37 ± 1.2 DSS
- drug sensitivity score [6, 21]: 8.4 ± 7.2 DSS
- drug sensitivity score [6, 22]: 3.93 ± 1.3 DSS
- drug sensitivity score [6, 23]: 4.27 ± 1.7 DSS
- drug sensitivity score [6, 24]: 3.23 ± 0.51 DSS
- drug sensitivity score [7, 20]: 7.87 ± 6.4 DSS
- drug sensitivity score [7, 21]: 9.2 ± 0.62 DSS
- drug sensitivity score [7, 22]: 5 ± 0.76 DSS
- drug sensitivity score [7, 23]: 7.07 ± 1.8 DSS
- drug sensitivity score [7, 24]: 7.8 ± 0.44 DSS
- drug sensitivity score [8, 20]: 5.3 ± 2.3 DSS
- drug sensitivity score [8, 21]: 4.2 ± 6.5 DSS
- drug sensitivity score [8, 22]: 5.8 ± 6 DSS
- drug sensitivity score [8, 23]: 7.9 ± 6 DSS
- drug sensitivity score [8, 24]: 6.57 ± 3.2 DSS
